The subject of one data set is HBV. The data set can be described thus: Determination of HBV DNA from the supernatants of HepAD38 cells (anti-HBV activity). In kind it is cell-based, hepatitis B virus. To be noted: Hepatitis B virus, 144 h; HBV DNA in HepAD38 supernatant, day 6, qPCR; read-out: Cell Activity (EC50). The protocol:
Determination of HBV DNA from the Supernatants of HepAD38 Cells
The anti-HBV activity was analysed in the stable transfected cell line HepAD38, which has been described to secrete high levels of HBV virion particles (Ladner et al., 1997). In brief, HepAD38 cells were cultured at 37° C. at 5% CO2 and 95% humidity in 200 μl maintenance medium, which was Dulbecco's modified Eagle's medium/Nutrient Mixture F-12 (Gibco, Karlsruhe), 10% fetal bovine serum (PAN Biotech Aidenbach) supplemented with 50 μg/ml penicillin/streptomycin (Gibco, Karlsruhe), 2 mM L-glutamine (PAN Biotech, Aidenbach), 400 μg/ml G418 (AppliChem, Darmstadt) and 0.3 μg/ml tetracycline. Cells were subcultured once a week in a 1:5 ratio, but were usually not passaged more than ten times. For the assay 60,000 cells were seeded in maintenance medium without any tetracycline into each well of a 96-well plate and treated with serial half-log dilutions of test compound. To minimize edge effects the outer 36 wells of the plate were not used but were filled with assay medium. On each assay plate six wells for the virus control (untreated HepAD38 cells) and six wells for the cell control (HepAD38 cells treated with 0.3 μg/ml tetracycline) were allocated, respectively. In addition, one plate set with reference inhibitors like BAY 41-4109, entecavir, and lamivudine instead of screening compounds were prepared in each experiment. In general, experiments were performed thrice in triplicates. At day 6 HBV DNA from 100 μl filtrated cell culture supernatant (AcroPrep Advance 96 Filter Plate, […] Supor membran, PALL GmbH, Dreieich) was automatically purified on the MagNa Pure LC instrument using the MagNA Pure 96 DNA and Viral NA Small Volume Kit (Roche Diagnostics, Mannheim) according to the instructions of the manufacturer. EC50 values were calculated from relative copy numbers of HBV DNA In brief, 5 μl of the 100 μl eluate containing HBV DNA were subjected to PCR LC480 Probes Master Kit (Roche) together with 1 μM antisense primer […], 0.5 μM sense primer […], 0.3 μM hybprobes […]-FL and LC640-[…]-PH (TIBMoBiol, Berlin) to a final volume of 12.5 μl. The PCR was performed on the Light Cycler 480 real time system (Roche Diagnostics, Mannheim) using the following protocol: Pre-incubation for 1 min at 95° C., amplification: 40 cycles×(10 sec at 95° C., 50 sec at 60° C., 1 sec at 70° C.), cooling for 10 sec at 40° C. Viral load was quantitated against known standards using HBV plasmid DNA of pCH-9/3091 (Nassal et al., 1990, Cell 63: 1357-1363) and the LightCycler 480 SW 1.5 software (Roche Diagnostics, Mannheim) and EC50 values were calculated using non-linear regression with GraphPad Prism 6 (GraphPad Software Inc., La Jolla, USA).
(In general: Quantitative PCR measures a nucleic acid by following its amplification.)

The nature of data set [1]: Cell viability assay (AlamarBlue) in HepAD38 cells. The settings on record: human. (The colour change of resazurin is a common sign of viable cells or microbes.)

Each structure is given as a SMILES string. A value given as a limit tells only on which side of the number the result lay.

`O=C(c1cc2c(F)c(F)c(F)cc2[nH]1)N1CCc2n[nH]c(-c3cscn3)c2C1` [Example 11, 4,5,6-trifluoro-2-[3-(1,3-thiazol-4-yl)-2H,4H,5H,6H,7H-pyrazolo[4,3-c]pyridine-5-carbonyl]-1H-indole]: in the data set on HBV, the EC50 is below 1 µM. This molecule also returned a CC50 at 6 days in data set [1] above 10 µM.

As to `O=C(c1cc2c(Cl)c(F)ccc2[nH]1)N1CCc2n[nH]c(-c3cscn3)c2C1` [Example 13, 4-chloro-5-fluoro-2-[3-(1,3-thiazol-4-yl)-2H,4H,5H,6H,7H-pyrazolo[4,3-c]pyridine-5-carbonyl]-1H-indole], the EC50 with HBV is below 1 µM. Also, in data set [1], the CC50 at 6 days was above 10 µM.

As to `O=C(c1cc2cc(F)c(F)cc2[nH]1)N1CCc2n[nH]c(-c3cscn3)c2C1` [Example 14, 5,6-difluoro-2-[3-(1,3-thiazol-4-yl)-2H,4H,5H,6H,7H-pyrazolo[4,3-c]pyridine-5-carbonyl]-1H-indole], in the data set with HBV, the EC50 is below 1 µM. Besides, the CC50 at 6 days in data set [1] is above 10 µM.

In the case of `CCc1c(F)ccc2[nH]c(C(=O)N3CCc4n[nH]c(-c5cscn5)c4C3)cc12` [Example 25, 4-ethyl-5-fluoro-2-[3-(1,3-thiazol-4-yl)-2H,4H,5H,6H,7H-pyrazolo[4,3-c]pyridine-5-carbonyl]-1H-indole], the EC50 with HBV lay within 1 to 25 µM. The molecule further registered a CC50 at 6 days in data set [1] above 10 µM.

Turning to `CC1c2c(-c3cscn3)n[nH]c2CCN1C(=O)c1cc2c(Cl)cc(F)cc2[nH]1` (stereo not shown) [Example 35, 4-chloro-6-fluoro-2-[4-methyl-3-(1,3-thiazol-4-yl)-1H,4H,5H,6H,7H-pyrazolo[4,3-c]pyridine-5-carbonyl]-1H-indole], the EC50 in the data set on HBV is below 1 µM. Besides, in data set [1], the 50% cytotoxic concentration (CC50) at 6 days is above 32 µM.

In the case of `O=C(NC1CCCCC1)c1n[nH]c2c1CN(C(=O)c1cc3ccccc3[nH]1)CC2` [Example 87, N-cyclohexyl-5-(1H-indole-2-carbonyl)-1H,4H,5H,6H,7H-pyrazolo[4,3-c]pyridine-3-carboxamide], the EC50 in the data set on HBV lay in the range of 1 to 25 µM. In data set [1], the CC50 at 6 days was above 100 µM.

Regarding `C[C@@H]1CCC[C@@H](C)N1C(=O)c1n[nH]c2c1CN(C(=O)c1cc3ccccc3[nH]1)CC2` [Example 146, 2-{3-[(2R,6R)-2,6-dimethylpiperidine-1-carbonyl]-1H,4H,5H,6H,7H-pyrazolo[4,3-c]pyridine-5-carbonyl}-1H-indole], the half-maximal effective concentration (EC50) in the data set with HBV was in the range of 1 to 25 µM. In addition, in data set [1], the CC50 at 6 days is above 10 µM.

Take `O=C(c1cc2ccccc2[nH]1)N1CCc2[nH]nc(C(=O)N3CCCC34CCC4)c2C1` [Example 151, 2-(3-{5-azaspiro[3.4]octane-5-carbonyl}-1H,4H,5H,6H,7H-pyrazolo[4,3-c]pyridine-5-carbonyl)-1H-indole]: in the data set with HBV, the EC50 was 1 to 25 µM. In data set [1], this molecule returned a CC50 at 6 days above 10 µM.

Take `Cn1ncc2c1CN(C(=O)c1n[nH]c3c1CN(C(=O)c1cc4ccccc4[nH]1)CC3)C2` [Example 168, 2-(3-{1-methyl-1H,4H,5H,6H-pyrrolo[3,4-c]pyrazole-5-carbonyl}-1H,4H,5H,6H,7H-pyrazolo[4,3-c]pyridine-5-carbonyl)-1H-indole]: the EC50 in the data set with HBV was in the range of 1 to 25 µM. This molecule gave a CC50 at 6 days in data set [1] above 10 µM.

For the molecule `O=C(c1cc2ccccc2[nH]1)N1CCc2[nH]nc(C(=O)N3CCC4(CCO4)C3)c2C1` (stereo not shown) [Example 182, 2-(3-{1-oxa-6-azaspiro[3.4]octane-6-carbonyl}-1H,4H,5H,6H,7H-pyrazolo[4,3-c]pyridine-5-carbonyl)-1H-indole], in the data set with HBV, the EC50 was 1 to 25 µM. The CC50 at 6 days in data set [1] was above 10 µM.

In the case of `O=C(c1cc2ccccc2[nH]1)N1CCc2[nH]nc(C(=O)N3CCC4(COC4)C3)c2C1` [Example 183, 2-(3-{2-oxa-6-azaspiro[3.4]octane-6-carbonyl}-1H,4H,5H,6H,7H-pyrazolo[4,3-c]pyridine-5-carbonyl)-1H-indole], the EC50 in the data set on HBV lay within 1 to 25 µM. In data set [1], the CC50 at 6 days was above 10 µM.

Consider `O=C(c1cc2ccccc2[nH]1)N1CCc2[nH]nc(C(=O)N3CCC(F)(F)C3)c2C1` [Example 186, 2-[3-(3,3-difluoropyrrolidine-1-carbonyl)-1H,4H,5H,6H,7H-pyrazolo[4,3-c]pyridine-5-carbonyl]-1H-indole], for which the EC50 in the data set with HBV is below 1 µM. The same molecule showed a CC50 at 6 days in data set [1] above 10 µM.

In the case of `O=C(c1cc2ccccc2[nH]1)N1CCc2[nH]nc(C(=O)N3CCCC(F)(F)C3)c2C1` [Example 187, 2-[3-(3,3-difluoropiperidine-1-carbonyl)-1H,4H,5H,6H,7H-pyrazolo[4,3-c]pyridine-5-carbonyl]-1H-indole], the EC50 with HBV is below 1 µM. The molecule further had a half-maximal cytotoxic concentration (CC50) at 6 days in data set [1] above 10 µM.

On to `CN(C(=O)c1n[nH]c2c1CN(C(=O)c1cc3ccccc3[nH]1)CC2)[C@@H]1CCCC[C@@H]1O` [Example 200, N-[(1R,2S)-2-hydroxycyclohexyl]-5-(1H-indole-2-carbonyl)-N-methyl-1H,4H,5H,6H,7H-pyrazolo[4,3-c]pyridine-3-carboxamide], for which, in the data set with HBV, the EC50 is 1 to 25 µM. In data set [1], this molecule gave a CC50 at 6 days above 10 µM.

For the molecule `O=C(c1cc2ccccc2[nH]1)N1CCc2[nH]nc(S(=O)(=O)N3CC(F)(F)C3)c2C1` [Example 209, 2-{3-[(3,3-difluoroazetidin-1-yl)sulfonyl]-1H,4H,5H,6H,7H-pyrazolo[4,3-c]pyridine-5-carbonyl}-1H-indole], the 50% effective concentration (EC50) in the data set with HBV is below 1 µM. The molecule also registered a CC50 at 6 days in data set [1] above 10 µM.

On to `O=C(c1cc2ccccc2[nH]1)N1CCc2[nH]nc(S(=O)(=O)N3CCCC3)c2C1` [Example 210, 2-[3-(pyrrolidine-1-sulfonyl)-1H,4H,5H,6H,7H-pyrazolo[4,3-c]pyridine-5-carbonyl]-1H-indole], for which the EC50 with HBV is below 1 µM. Besides, the CC50 at 6 days in data set [1] was above 10 µM.

Take `COCCN(C)S(=O)(=O)c1n[nH]c2c1CN(C(=O)c1cc3ccccc3[nH]1)CC2` [Example 212, 5-(1H-indole-2-carbonyl)-N-(2-methoxyethyl)-N-methyl-1H,4H,5H,6H,7H-pyrazolo[4,3-c]pyridine-3-sulfonamide]: the EC50 in the data set on HBV lay in the range of 1 to 25 µM. The molecule further displayed a half-maximal cytotoxic concentration (CC50) at 6 days in data set [1] above 10 µM.

For the molecule `CCc1cc(F)cc2[nH]c(C(=O)N3CCc4[nH]nc(C(=O)N5CCCC56CC6)c4C3)cc12` [Example 214, 2-(3-{4-azaspiro[2.4]heptane-4-carbonyl}-1H,4H,5H,6H,7H-pyrazolo[4,3-c]pyridine-5-carbonyl)-4-ethyl-6-fluoro-1H-indole], the EC50 in the data set on HBV is below 1 µM. In data set [1], this molecule came in with a CC50 at 6 days above 10 µM.

As to `O=C(c1cc2c(Cl)cc(F)cc2[nH]1)N1CCc2[nH]nc(C(=O)N3CCCC34CC4)c2C1` [Example 215, 2-(3-{4-azaspiro[2.4]heptane-4-carbonyl}-1H,4H,5H,6H,7H-pyrazolo[4,3-c]pyridine-5-carbonyl)-4-chloro-6-fluoro-1H-indole], in the data set on HBV, the EC50 was below 1 µM. This molecule returned a CC50 at 6 days in data set [1] above 10 µM.

Regarding `O=C(c1cc2c(Cl)cccc2[nH]1)N1CCc2[nH]nc(C(=O)N3CCCC34CC4)c2C1` [Example 216, 2-(3-{4-azaspiro[2.4]heptane-4-carbonyl}-1H,4H,5H,6H,7H-pyrazolo[4,3-c]pyridine-5-carbonyl)-4-chloro-1H-indole], in the data set with HBV, the EC50 was below 1 µM. In addition, the CC50 at 6 days in data set [1] is above 10 µM.

`O=C(c1cc2c(Cl)c(F)ccc2[nH]1)N1CCc2[nH]nc(C(=O)N3CCC(F)(F)C3)c2C1` [Example 217, 4-chloro-2-[3-(3,3-difluoropyrrolidine-1-carbonyl)-1H,4H,5H,6H,7H-pyrazolo[4,3-c]pyridine-5-carbonyl]-5-fluoro-1H-indole]: in the data set on HBV, the EC50 was below 1 µM. In data set [1], the CC50 at 6 days was above 10 µM.

For the molecule `CN(C(=O)c1n[nH]c2c1CN(C(=O)c1cc3ccccc3[nH]1)CC2)C1(COC(=O)c2ccccc2)CC1` [Example 219, {1-[N-methyl 5-(1H-indole-2-carbonyl)-1H,4H,5H,6H,7H-pyrazolo[4,3-c]pyridine-3-amido]cyclopropyl}methyl benzoate], the EC50 with HBV was below 1 µM. The half-maximal cytotoxic concentration (CC50) at 6 days in data set [1] was above 10 µM.

`O=C(NC1CC1)c1n[nH]c2c1CN(C(=O)c1cc3ccccc3[nH]1)CC2` [Example 220, N-cyclopropyl-5-(1H-indole-2-carbonyl)-1H,4H,5H,6H,7H-pyrazolo[4,3-c]pyridine-3-carboxamide]: the EC50 in the data set with HBV lay in the range of 1 to 25 µM. The molecule further had a CC50 at 6 days in data set [1] above 10 µM.

For orientation: EC50 means the concentration needed to bring the measured effect to its halfway point. Usually CC50 stands for the concentration giving 50% cytotoxicity.
